Results as given in US5175253A, “Binding peptides” (Washington University, priority 1991, dated 1992).
Read-outs that look alike come from different tables or passages of the source. Each block holds one compound with its values, some of them ahead of it. Ends that are not written are not given here.

Legend:
[1] = Solubility of peptides in water and DMSO
Description: Some of the peptides used as candidate competitors, especially the pentapeptides, were dissolved in dimethylsulfoxide (DMSO) because they were not soluble in water. For all of these tests the same final concentration of DMSO was added to each cell monolayer.

SEC receptor [2] = details: cited from earlier work
substance P receptor = molecular target: T1, substance P receptor (Rattus norvegicus, UniProt P14600); assay: Competition for binding of substance P to a stable transfected cell line expressing the substance P receptor
T1 construct: expressed in transfected cells
T1 sequence (P14600 whole entry): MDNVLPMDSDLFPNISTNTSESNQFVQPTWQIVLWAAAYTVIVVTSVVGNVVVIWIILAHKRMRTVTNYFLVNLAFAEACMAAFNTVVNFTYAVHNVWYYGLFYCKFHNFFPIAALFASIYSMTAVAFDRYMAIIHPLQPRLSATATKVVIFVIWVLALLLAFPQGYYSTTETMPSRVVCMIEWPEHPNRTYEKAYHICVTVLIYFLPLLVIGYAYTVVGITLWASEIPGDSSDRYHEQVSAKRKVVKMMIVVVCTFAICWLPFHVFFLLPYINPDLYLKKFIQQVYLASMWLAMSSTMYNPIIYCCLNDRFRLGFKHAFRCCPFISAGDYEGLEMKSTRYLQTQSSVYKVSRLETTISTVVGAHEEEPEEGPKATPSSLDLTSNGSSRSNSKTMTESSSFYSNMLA

SEC receptor [3] = assay: Competition for binding to, and cross-linking of, the SEC receptor of HepG2 cells; design: species or system human
synthesis of α1 AT = details: cited from earlier work
SEC receptor [4] = assay: Competition for binding of 125I peptide 105Y to HepG2 cells; design: species or system human; details: 125I peptide 105Y 50 nM, 2 hrs at 4° C., unlabelled competitor
Description: For each test HepG2 cells were incubated for 2 hrs at 4° C. in binding buffer, ^125 I peptide 105Y at saturating concentrations (50 nM) and competing unlabelled synthetic peptides in the concentrations specified on the horizontal axis. […] Binding in the absence of competitor was arbitrarily designated 100% binding on the vertical axis. Each data point and set of error bars represent mean and 1 standard deviation for four separate determinations. Partial amino acid sequences of α1 AT and synthetic peptides are shown at the top of each of panels a, b and c.
Each bar represents mean and 1 standard deviation for 3 separate determinations.

SEC receptor [5] = assay: Competition for binding of α1 AT-125I trypsin complexes to HepG2 cells; design: species or system human; details: complexes 50 nM, competitor in 50-fold molar excess, 2 hrs at 4° C.
Description: FIG. 2 presents two bar graphs which show competition for binding and internalization of α1 AT^125 I trypsin complexes by HepG2 cells. For panel a, HepG2 cells were incubated for 2 hours at 4° C. in binding buffer, α1 AT-^125 I trypsin complexes in subsaturating concentrations (50 nM) and competing unlabelled proteins or synthetic peptides in 50-fold molar excess. The cells were then rinsed, homogenized and cell-associated radioactivity determined. Binding in the absence of competitor was arbitrarily designated 0% inhibition of binding on the vertical axis. Results represent mean and 1 standard deviation for 3 separate determinations of each competitor. For panel b, HepG2 cells were incubated for 1 hour at 37° C. in binding buffer, α1 AT^125 I trypsin complexes in subsaturating concentrations (50 nM) and competing unlabelled proteins or synthetic peptides in 50-fold molar excess. […] Internalization in the absence of competitor was arbitrarily designated 0% inhibition of internalization on the vertical axis. Results represent mean and 1 standard deviation for 3 separate determinations of each putative competitor. Partial amino acid sequences for α1 AT and peptides are shown at the top of each panel. […]

SEC receptor [6] = details: unlabelled competitor; cited from earlier work
SEC receptor [7] = assay: Competition for binding of 125I peptide 105C to HepG2 cells; design: species or system human; details: 125I peptide 105C 50 nM, 2 hours at 4° C.
Description: (§1) Left panel a: cells were incubated 2 hours at 4° C. with several different concentrations of ^125 I peptide 105C in the absence (open circles, total ligand binding) or the presence of unlabelled peptide 105C in 200-fold molar excess (filled circles, nonspecific binding). The difference was designated specific binding (open triangles). The cells were then rinsed and cell-associated radioactivity was determined by gamma counting of cell homogenates. Right panel b: cells were incubated for 2 hours at 4° C. with ^125 I peptide 105C in subsaturating concentrations (50 nM) in the absence or presence of unlabelled competing proteins or peptides as indicated on the horizontal axis. The molar excess in fold of each competitor is indicated in parentheses. Binding in the absence of competitor was arbitrarily designated 0% inhibition of binding on the vertical axis.
(§2) The direct binding of peptide 105C to HepG2 cells was also examined. This peptide was radioiodinated by the chloramine T method and purified by reverse phase C:18 chromatography. Separate monolayers of cells were incubated with ^125 I-105C in several different concentrations either in the absence or presence of unlabelled 105C in 200-fold molar excess (FIG. 3, left panel a). […]

SEC receptor [8] = assay: Competition for internalization of α1 AT-125I trypsin complexes by HepG2 cells; format: cell-based, human; details: 50-fold molar excess, 60 minutes at 37° C., Proteinase K-resistant radioactivity
Description: FIG. 2 presents two bar graphs which show competition for binding and internalization of α1 AT^125 I trypsin complexes by HepG2 cells. For panel a, HepG2 cells were incubated for 2 hours at 4° C. in binding buffer, α1 AT-^125 I trypsin complexes in subsaturating concentrations (50 nM) and competing unlabelled proteins or synthetic peptides in 50-fold molar excess. The cells were then rinsed, homogenized and cell-associated radioactivity determined. Binding in the absence of competitor was arbitrarily designated 0% inhibition of binding on the vertical axis. Results represent mean and 1 standard deviation for 3 separate determinations of each competitor. For panel b, HepG2 cells were incubated for 1 hour at 37° C. in binding buffer, α1 AT^125 I trypsin complexes in subsaturating concentrations (50 nM) and competing unlabelled proteins or synthetic peptides in 50-fold molar excess. […] Internalization in the absence of competitor was arbitrarily designated 0% inhibition of internalization on the vertical axis. Results represent mean and 1 standard deviation for 3 separate determinations of each putative competitor. Partial amino acid sequences for α1 AT and peptides are shown at the top of each panel.
The cells were then rinsed extensively and incubated with Proteinase K for an additional 60 minutes at 4° C. to remove any surface bound radiolabelled ligand. Internalization was defined as radioactivity associated with the resulting cell pellet. […] Higher degrees of inhibition were achieved by higher concentrations of competitors in other tests.

SEC receptor [9] = assay: Direct binding of 125I peptide 105C to HepG2 cells; design: species or system human
Description: as §1, §2

solubility [1]: soluble in both water and DMSO
Compound: EVKFNKP [peptide 105B, Glu-Val-Lys-Phe-Asn-Lys-Pro]

Compound: α1 AT-elastase complexes: complex of α1 AT with neutrophil elastase
blocking of binding of 125I peptide 105Y (SEC receptor [2]): blocked

Compound: CSCC[C@H](NC(=O)[C@H](CC(C)C)NC(=O)[C@H](Cc1cnc[nH]1)NC(=O)CNC(=O)[C@@H](NC(=O)[C@H](C)NC(=O)[C@H](Cc1c[nH]c2ccccc12)NC(=O)[C@H](CCC(N)=O)NC(=O)[C@H](CC(N)=O)NC(=O)CNC(=O)[C@H](CC(C)C)NC(=O)[C@H](CCCN=C(N)N)NC(=O)[C@H](CCC(N)=O)NC(=O)[C@@H]1CCC(=O)N1)C(C)C)C(N)=O [bombesin]
competition for binding of substance P (substance P receptor): do not compete for binding of substance P | competition for binding to, and cross-linking of, the SEC receptor (SEC receptor [3]): compete for binding to, and cross-linking of, the SEC receptor

Compound: SIPPEVKFNKPFVYLI [peptide 105Y, carboxy-terminal fragment, amino acids 359-374, of α1 AT]
effect on synthesis of α1 AT (synthesis of α1 AT): mediated an increase in synthesis of α1 AT | Kd (SEC receptor [2]; 125I peptide 105Y, HepG2 cells and human blood monocytes, read-out: K2): 40 nM | direct binding of 125I peptide 105Y (SEC receptor [2]; HepG2 cells and human blood monocytes): bound specifically and saturably | competition for binding of 125I peptide 105Y to HepG2 cells (SEC receptor [4]): compete | inhibition of binding of α1 AT-125I trypsin complexes to HepG2 cells (SEC receptor [5]): inhibits binding | competition for binding of substance P (substance P receptor): do not compete for binding of substance P | blocking of binding of 125I α1 AT-elastase complexes (SEC receptor [6]): blocked binding | inhibition of binding of 125I 105C (SEC receptor [7]): inhibited | inhibition of internalization of α1 AT-125I trypsin complexes (SEC receptor [8]): inhibits internalization

Compound: amyloid-β-protein
competition for binding of substance P (substance P receptor): do not compete for binding of substance P | competition for binding to, and cross-linking of, the SEC receptor (SEC receptor [3]): compete for binding to, and cross-linking of, the SEC receptor

Compound: α1 ACT-cathepsin G complexes: serpin-enzyme complex
blocking of binding of 125I peptide 105Y (SEC receptor [2]): blocked

Compound: Phe-Val-Tyr-Leu-Ile (FVYLI) [peptide 105C]
competition for binding of 125I peptide 105Y to HepG2 cells (SEC receptor [4]): compete as effectively as peptide 105Y | competition for binding of 125I peptide 105Y to HepG2 cells (SEC receptor [4]; listed as FVYLI): no difference in inhibition of binding | inhibition of binding of α1 AT-125I trypsin complexes to HepG2 cells (SEC receptor [5]): inhibits binding | direct binding to HepG2 cells (SEC receptor [9]; 125I-105C with or without unlabelled 105C in 200-fold molar excess): specific and saturable binding | Kd (SEC receptor [9]; 125I-105C, HepG2 cells, 2 hours at 4° C., read-out: point of half-maximal saturation): ~40 nM | inhibition of internalization of α1 AT-125I trypsin complexes (SEC receptor [8]): inhibits internalization as effectively as peptide 105Y and unlabelled α1 AT-trypsin complexes

Compound: native α1 AT: purified human plasma α1-antitrypsin, 55 kDa serum glycoprotein
inhibition of internalization of α1 AT-125I trypsin complexes (SEC receptor [8]): no significant inhibition of internalization
